Reference: PMC8391922, “The Combined Effect of Branching and Elongation on the Bioactivity Profile of Phytocannabinoids. Part I: Thermo-TRPs” (Biomedicines, 2021)
Where two headings read alike, the source gives them in different places.

Experiments:
Format in all cases: cell-based
rat TRPM8 = target: T1, rat TRPM8 (Rattus norvegicus, UniProt Q8R455); test: TRPM8 antagonism of icilin-induced intracellular Ca2+ elevation (Fluo-4) in transfected HEK-293 cells; settings: compound added 5 min before agonist icilin 0.25 μM
T1 construct: expressed in transfected cells; host or cells: HEK-293
T1 sequence (Q8R455 whole entry): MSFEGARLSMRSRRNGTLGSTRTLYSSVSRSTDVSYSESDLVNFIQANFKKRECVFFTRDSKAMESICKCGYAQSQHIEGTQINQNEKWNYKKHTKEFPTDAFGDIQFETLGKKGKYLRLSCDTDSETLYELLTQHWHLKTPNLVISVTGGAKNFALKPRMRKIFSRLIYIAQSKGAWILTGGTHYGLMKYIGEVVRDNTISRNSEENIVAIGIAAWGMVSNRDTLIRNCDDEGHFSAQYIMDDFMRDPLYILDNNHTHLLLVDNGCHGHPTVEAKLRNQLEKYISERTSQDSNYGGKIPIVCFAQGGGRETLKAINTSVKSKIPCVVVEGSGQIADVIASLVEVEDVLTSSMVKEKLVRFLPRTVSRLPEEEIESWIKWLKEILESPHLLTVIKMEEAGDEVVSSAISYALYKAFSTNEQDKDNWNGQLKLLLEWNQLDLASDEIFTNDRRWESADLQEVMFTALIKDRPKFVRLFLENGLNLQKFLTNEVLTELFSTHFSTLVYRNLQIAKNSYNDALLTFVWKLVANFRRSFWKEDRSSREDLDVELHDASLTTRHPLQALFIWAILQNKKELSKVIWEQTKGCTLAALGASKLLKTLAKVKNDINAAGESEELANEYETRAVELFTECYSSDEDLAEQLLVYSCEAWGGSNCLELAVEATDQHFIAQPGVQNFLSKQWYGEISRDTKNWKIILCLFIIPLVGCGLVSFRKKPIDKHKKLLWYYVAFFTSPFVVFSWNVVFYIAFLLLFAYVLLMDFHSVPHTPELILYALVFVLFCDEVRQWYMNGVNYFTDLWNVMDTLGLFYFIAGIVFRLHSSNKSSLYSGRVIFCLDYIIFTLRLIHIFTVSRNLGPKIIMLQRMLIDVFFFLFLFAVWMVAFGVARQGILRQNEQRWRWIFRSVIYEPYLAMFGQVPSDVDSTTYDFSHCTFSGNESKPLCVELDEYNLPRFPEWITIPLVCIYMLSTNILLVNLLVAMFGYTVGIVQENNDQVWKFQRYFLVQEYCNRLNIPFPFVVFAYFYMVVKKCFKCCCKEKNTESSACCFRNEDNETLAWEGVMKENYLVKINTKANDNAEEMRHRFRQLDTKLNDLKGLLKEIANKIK
Experimental: (§1) Assays of rat TRPA1, TRPV2, TRPV3, TRPV4, and TRPM8 or human TRPV1 mediated elevation of intracellular Ca ^2+ in transfected HEK-293 cells were performed with a continuous monitoring of [Ca ^2+]i during the experiments. […] Cell fluorescence before and after the addition of various concentrations of test compounds was measured, normalizing the effects against the response to ionomycin (IM, 4 μM). The values of the effect on [Ca^2+]i in HEK-293 cells not transfected were used as baseline and subtracted from the values obtained from transfected cells. For TRPA1, agonist efficacy was expressed as a percentage of the effect on [Ca ^2+]i observed with 100 μM allylisothiocyanate. […] In the TRPV3 assay, TRPV3-expressing HEK293 cells were first sensitized with the structurally unrelated agonist 2-aminoethoxydiphenyl borate (100 μM). Antagonist/desensitizing behavior is evaluated against the agonist of the TRP analyzed by adding the compounds directly in the quartz cuvette 5 min before stimulation of cells with the agonist. […] Dose-response curve fitting (sigmoidal dose-response variable slope) and parameter estimation were performed with Graph-Pad Prism8 (GraphPad Software Inc., San Diego, CA, USA). All determinations were performed at least in triplicate.

rat TRPV3 = target: T2, rat TRPV3 (Rattus norvegicus, UniProt Q4QYD9); test: TRPV3-mediated elevation of intracellular Ca2+ (Fluo-4) in transfected HEK-293 cells; settings: for IC50: antagonist/desensitizing, compound added 5 min before agonist thymol 100 μM; for EC50: half-maximal increase in [Ca2+]i, HEK-293, read-out: TRPV3 Potency EC50; for TRPV3 Efficacy (% IM 4 μM): percentage of the response to ionomycin 4 μM, cells sensitized with 2-aminoethoxydiphenyl borate 100 μM
T2 construct: expressed in transfected cells; host or cells: HEK-293
T2 sequence (Q4QYD9 1-791): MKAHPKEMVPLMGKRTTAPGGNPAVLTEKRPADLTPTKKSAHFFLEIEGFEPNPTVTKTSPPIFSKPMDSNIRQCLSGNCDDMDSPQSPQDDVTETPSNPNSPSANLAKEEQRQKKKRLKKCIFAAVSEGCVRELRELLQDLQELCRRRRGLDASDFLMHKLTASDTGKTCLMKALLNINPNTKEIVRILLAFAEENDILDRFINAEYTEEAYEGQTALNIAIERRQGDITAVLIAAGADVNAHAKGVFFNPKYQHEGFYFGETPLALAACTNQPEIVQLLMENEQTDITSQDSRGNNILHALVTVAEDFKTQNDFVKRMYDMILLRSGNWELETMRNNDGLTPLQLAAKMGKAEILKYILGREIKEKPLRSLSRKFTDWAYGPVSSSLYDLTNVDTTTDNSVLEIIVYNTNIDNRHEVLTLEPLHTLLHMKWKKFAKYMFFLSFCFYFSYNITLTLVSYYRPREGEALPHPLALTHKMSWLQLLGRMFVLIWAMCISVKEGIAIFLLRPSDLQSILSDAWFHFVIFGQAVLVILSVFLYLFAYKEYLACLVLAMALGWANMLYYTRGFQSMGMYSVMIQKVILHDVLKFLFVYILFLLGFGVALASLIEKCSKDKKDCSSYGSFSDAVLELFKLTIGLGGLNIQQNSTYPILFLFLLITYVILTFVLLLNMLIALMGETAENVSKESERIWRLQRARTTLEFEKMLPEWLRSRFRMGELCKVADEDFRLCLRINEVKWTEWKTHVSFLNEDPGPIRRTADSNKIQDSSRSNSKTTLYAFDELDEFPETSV
Experimental: Effects of compounds on intracellular Ca^2+ concentration ([Ca^2+]i) were determined using Fluo-4, a selective intracellular fluorescent probe for Ca ^2+. Assays of rat TRPA1, TRPV2, TRPV3, TRPV4, and TRPM8 or human TRPV1 mediated elevation of intracellular Ca ^2+ in transfected HEK-293 cells were performed with a continuous monitoring of [Ca ^2+]i during the experiments. Briefly, human embryonic kidney (HEK-293) cells, stably transfected with rat TRPA1, TRPV2, TRPV3, TRPV4, and TRPM8 or human TRPV1 (selected by geneticin 600 μg mL ^−1) or not transfected, were cultured in EMEM+ 2 mM glutamine + 1% nonessential amino acids +10% FBS and maintained at 37 °C with 5% CO2. TRP-HEK-293 cells express stably high levels of TRP transcripts, while these transcripts were virtually absent in wild-type HEK-293 cells as checked by real-time PCR. On the day of the experiment, the cells were loaded for 1 h in the dark at room temperature with Fluo-4 AM (4 μM in DMSO containin 0.02% Pluronic F-127). The cells were rinsed, resuspended in Tyrode’s solution (145 mM NaCl, 2.5 mM KCl, 1.5 mM CaCl2, 1.2 mM MgCl2, 10 mM D-glucose, and 10 mM HEPES, pH 7.4), and transferred to a quartz cuvette of a spectrofluorimeter (PerkinElmer LS50B; λEX = 488 nm, λEM = 516 nm) equipped with a PTP-1 fluorescence Peltier system (PerkinElmer Life and Analytical Sciences, Waltham, MA, USA) under continuous stirring. Cell fluorescence before and after the addition of various concentrations of test compounds was measured, normalizing the effects against the response to ionomycin (IM, 4 μM). The values of the effect on [Ca^2+]i in HEK-293 cells not transfected were used as baseline and subtracted from the values obtained from transfected cells. For TRPA1, agonist efficacy was expressed as a percentage of the effect on [Ca ^2+]i observed with 100 μM allylisothiocyanate. The potency of the compounds (EC50 values) is determined as the concentration required to produce half-maximal increases in [Ca ^2+]i. In the TRPV3 assay, TRPV3-expressing HEK293 cells were first sensitized with the structurally unrelated agonist 2-aminoethoxydiphenyl borate (100 μM). Antagonist/desensitizing behavior is evaluated against the agonist of the TRP analyzed by adding the compounds directly in the quartz cuvette 5 min before stimulation of cells with the agonist. Allylisothiocyanate (100 μM) was used for TRPA1, capsaicin (0.1 μM) for TRPV1, cannabidiol (2 μM) for TRPV2, thymol (100 μM) for TRPV3, GSK1016790A (10 nM) for TRPV4, and icilin (0.25 μM) for TRPM8. The IC50 value was expressed as the concentration exerting a half-maximal inhibition of agonist effect, taking as 100% the effect on [Ca^2+]i exerted by the agonist alone. Dose-response curve fitting (sigmoidal dose-response variable slope) and parameter estimation were performed with Graph-Pad Prism8 (GraphPad Software Inc., San Diego, CA, USA). All determinations were performed at least in triplicate.

human TRPV1 = target: T3, human TRPV1 (Homo sapiens, UniProt Q8NER1); test: TRPV1-mediated elevation of intracellular Ca2+ (Fluo-4) in transfected HEK-293 cells; settings: for TRPV1 Efficacy (% IM 4 μM): percentage of the response to ionomycin 4 μM, HEK-293
T3 construct: expressed in transfected cells; host or cells: HEK-293
T3 sequence (Q8NER1 whole entry): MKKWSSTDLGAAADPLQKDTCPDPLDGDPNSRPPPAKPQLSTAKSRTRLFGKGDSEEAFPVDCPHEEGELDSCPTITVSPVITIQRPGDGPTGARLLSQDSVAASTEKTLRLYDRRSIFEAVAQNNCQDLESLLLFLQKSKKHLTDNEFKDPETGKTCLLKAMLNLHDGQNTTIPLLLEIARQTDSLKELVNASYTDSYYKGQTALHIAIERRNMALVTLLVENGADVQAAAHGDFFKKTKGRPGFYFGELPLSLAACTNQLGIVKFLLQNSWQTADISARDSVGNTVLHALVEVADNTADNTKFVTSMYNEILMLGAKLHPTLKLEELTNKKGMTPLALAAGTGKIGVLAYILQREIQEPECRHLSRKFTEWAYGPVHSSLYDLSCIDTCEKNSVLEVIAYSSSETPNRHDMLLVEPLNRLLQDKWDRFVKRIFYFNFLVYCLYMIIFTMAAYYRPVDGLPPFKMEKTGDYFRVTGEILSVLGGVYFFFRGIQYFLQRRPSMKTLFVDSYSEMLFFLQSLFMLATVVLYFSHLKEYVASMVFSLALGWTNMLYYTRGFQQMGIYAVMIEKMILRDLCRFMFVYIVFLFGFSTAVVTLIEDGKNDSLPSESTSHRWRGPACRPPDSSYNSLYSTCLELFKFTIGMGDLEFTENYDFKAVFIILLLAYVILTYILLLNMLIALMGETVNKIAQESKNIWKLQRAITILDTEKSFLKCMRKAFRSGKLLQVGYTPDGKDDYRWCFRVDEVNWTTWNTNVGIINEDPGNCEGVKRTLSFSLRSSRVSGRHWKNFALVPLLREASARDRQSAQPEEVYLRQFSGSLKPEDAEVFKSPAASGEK
Experimental: as §1

rat TRPV4 = target: T4, rat TRPV4 (Rattus norvegicus, UniProt Q9ERZ8); test: TRPV4-mediated elevation of intracellular Ca2+ (Fluo-4) in transfected HEK-293 cells; settings: for TRPV4 Efficacy (% IM 4 μM): percentage of the response to ionomycin 4 μM
T4 construct: expressed in transfected cells; host or cells: HEK-293
T4 sequence (Q9ERZ8 whole entry): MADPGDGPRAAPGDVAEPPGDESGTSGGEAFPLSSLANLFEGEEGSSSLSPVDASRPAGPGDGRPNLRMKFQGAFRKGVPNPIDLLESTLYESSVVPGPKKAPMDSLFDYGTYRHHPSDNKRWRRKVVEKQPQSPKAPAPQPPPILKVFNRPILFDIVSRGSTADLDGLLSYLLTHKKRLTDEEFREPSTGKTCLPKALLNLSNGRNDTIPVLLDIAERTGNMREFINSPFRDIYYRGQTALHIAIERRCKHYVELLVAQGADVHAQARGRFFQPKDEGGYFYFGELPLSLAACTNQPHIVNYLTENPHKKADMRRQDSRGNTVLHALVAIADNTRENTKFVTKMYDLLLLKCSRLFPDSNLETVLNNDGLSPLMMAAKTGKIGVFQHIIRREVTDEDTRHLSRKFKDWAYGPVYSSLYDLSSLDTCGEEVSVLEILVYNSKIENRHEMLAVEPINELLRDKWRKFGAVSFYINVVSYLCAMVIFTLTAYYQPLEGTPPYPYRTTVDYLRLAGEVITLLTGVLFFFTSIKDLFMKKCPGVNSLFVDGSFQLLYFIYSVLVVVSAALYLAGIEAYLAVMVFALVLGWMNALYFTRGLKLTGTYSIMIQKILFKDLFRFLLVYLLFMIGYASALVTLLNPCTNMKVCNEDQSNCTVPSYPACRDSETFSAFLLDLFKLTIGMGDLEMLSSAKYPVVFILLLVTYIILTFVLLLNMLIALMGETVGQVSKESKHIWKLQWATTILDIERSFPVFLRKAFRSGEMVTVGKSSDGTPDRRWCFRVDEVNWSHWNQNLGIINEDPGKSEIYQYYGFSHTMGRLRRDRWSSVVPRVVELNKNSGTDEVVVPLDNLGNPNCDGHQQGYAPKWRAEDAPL
Experimental: as §1

rat TRPA1 = target: T5, rat TRPA1 (Rattus norvegicus, UniProt Q6RI86); test: TRPA1-mediated elevation of intracellular Ca2+ (Fluo-4) in transfected HEK-293 cells; settings: for TRPA1 Efficacy (%ITC 100 μM): percentage of the effect of 100 μM allylisothiocyanate on [Ca2+]i
T5 construct: expressed in transfected cells; host or cells: HEK-293
T5 sequence (Q6RI86 whole entry): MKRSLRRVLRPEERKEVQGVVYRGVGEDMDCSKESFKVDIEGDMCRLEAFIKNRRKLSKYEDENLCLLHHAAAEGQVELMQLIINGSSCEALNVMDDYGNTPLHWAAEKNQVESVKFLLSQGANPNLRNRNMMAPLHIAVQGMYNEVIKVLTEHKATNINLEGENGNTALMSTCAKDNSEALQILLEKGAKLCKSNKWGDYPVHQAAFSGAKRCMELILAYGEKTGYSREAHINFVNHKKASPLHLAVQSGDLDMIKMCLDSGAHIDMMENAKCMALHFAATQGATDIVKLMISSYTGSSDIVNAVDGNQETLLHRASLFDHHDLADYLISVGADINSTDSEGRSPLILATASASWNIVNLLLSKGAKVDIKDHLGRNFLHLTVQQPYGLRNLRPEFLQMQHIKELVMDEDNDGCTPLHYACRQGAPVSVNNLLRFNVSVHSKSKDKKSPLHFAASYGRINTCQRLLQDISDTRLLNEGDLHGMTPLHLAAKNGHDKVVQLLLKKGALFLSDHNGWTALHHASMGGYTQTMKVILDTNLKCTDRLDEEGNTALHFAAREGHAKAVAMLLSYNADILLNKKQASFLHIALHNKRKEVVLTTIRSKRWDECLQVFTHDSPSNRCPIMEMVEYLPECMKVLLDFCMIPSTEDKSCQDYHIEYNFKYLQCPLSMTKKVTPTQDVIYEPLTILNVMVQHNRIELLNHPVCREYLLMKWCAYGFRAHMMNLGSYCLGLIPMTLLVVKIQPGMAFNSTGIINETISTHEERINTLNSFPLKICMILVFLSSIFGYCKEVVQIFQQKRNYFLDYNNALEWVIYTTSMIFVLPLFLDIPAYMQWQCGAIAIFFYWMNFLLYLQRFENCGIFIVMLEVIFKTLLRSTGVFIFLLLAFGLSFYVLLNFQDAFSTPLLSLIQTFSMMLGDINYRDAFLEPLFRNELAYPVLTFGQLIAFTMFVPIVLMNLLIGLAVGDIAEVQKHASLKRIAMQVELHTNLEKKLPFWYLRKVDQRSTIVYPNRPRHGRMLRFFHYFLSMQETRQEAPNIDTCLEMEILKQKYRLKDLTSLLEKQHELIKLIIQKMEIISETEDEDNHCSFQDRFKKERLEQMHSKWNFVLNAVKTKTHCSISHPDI
Experimental: as §1

[1] = antagonist, read-out: IC50 TRPM8
[2] = antagonist/desensitizing, compound added 5 min before agonist capsaicin 0.1 μM
[3] = antagonist/desensitizing, compound added 5 min before agonist capsaicin 0.1 μM, read-out: IC50 TRPV1
[4] = antagonist/desensitizing, compound added 5 min before agonist GSK1016790A 10 nM, read-out: IC50 TRPV4
[5] = antagonist/desensitizing, compound added 5 min before agonist AITC 100 μM, read-out: IC50 TRPA1
[6] = half-maximal increase in [Ca2+]i, HEK-293, read-out: TRPA1 Potency EC50

| SMILES | IC50 (rat TRPM8; [1]) | IC50 (rat TRPV3) | EC50 (rat TRPV3) | TRPV3 Efficacy (% IM 4 μM) (rat TRPV3) | IC50 TRPV1 (human TRPV1; [2]) | IC50 (human TRPV1; [3]) | TRPV1 Efficacy (% IM 4 μM) (human TRPV1) | IC50 (rat TRPV4; [4]) | TRPV4 Efficacy (% IM 4 μM) (rat TRPV4; HEK-293) | IC50 (rat TRPA1; [5]) | EC50 (rat TRPA1; [6]) | TRPA1 Efficacy (%ITC 100 μM) (rat TRPA1; HEK-293) | IC50 (rat TRPM8; IC50 TRPM8, antagonist) | IC50 (human TRPV1) | EC50 (rat TRPV4; half-maximal increase in [Ca2+]i, HEK-293, read-out: TRPV4 Potency EC50) | IC50 TRPM8 (rat TRPM8; antagonist) | EC50 (human TRPV1) | IC50 (rat TRPV4) | EC50 (rat TRPA1) | IC50 (rat TRPA1) |
| --- | --- | --- | --- | --- | --- | --- | --- | --- | --- | --- | --- | --- | --- | --- | --- | --- | --- | --- | --- | --- |
| C=C(C)[C@@H]1CCC(C)=C[C@H]1c1c(O)cc(C(C)(C)CCCCCC)cc1O [1b, Depentyl-α,α-dimethylheptyl-cannabidiol] | 13.4 ± 2.1 µM | 32.6 ± 5.1 µM | 11 ± 1.1 µM | 15.8 ± 0.4% | inactive | > 100 µM | < 10% | > 100 µM | 34.0 ± 1.3% | 0.51 ± 0.03 µM | 0.4 ± 0.15 µM | 133.4 ± 5.3% |  |  |  |  |  |  |  |  |
| CCCCCCC(C)(C)c1cc(O)c(C/C=C(\C)CCC=C(C)C)c(O)c1 [7b, Depentyl-α,α-dimethylheptyl-cannabigerol] |  | 35.4 ± 3.6 µM | 39.7 ± 0.03 µM | 64.6 ± 4.8% | inactive |  | < 10% | 35.4 ± 3.2 µM | 34.4 ± 5.2% | 1.7 ± 0.15 µM | 9.1 ± 2 µM | 99.2 ± 4.5% | 9.2 ± 0.8 µM | > 100 µM | 39 ± 21.6 µM |  |  |  |  |  |
| CCCCCCC(C)(C)c1cc(O)c2c(c1)OC(C)(CCC=C(C)C)C=C2 (stereo not drawn) [8b, Depentyl-α,α-dimethylheptyl-cannabichromene] |  | > 50 µM | > 50 µM | 41.6 ± 1.8% |  |  | 18.9 ± 0.2% |  | < 10% |  |  | 120.4 ± 2.8% | > 100 µM | > 100 µM |  | totally inactive | 12.8 ± 0.9 µM | > 100 µM | 0.76 ± 0.12 µM | 0.32 ± 0.01 µM |
| CCCCCCCc1cc(O)c2c(c1)OC(C)(CCC=C(C)C)C=C2 (stereo not shown) [8c, Depentyl-5-n-heptylcannabichromene] | > 100 µM | > 100 µM |  | <10% |  | > 100 µM | <10% | > 100 µM | <10% | 3.8 ± 0.35 µM | 1.2 ± 0.2 µM | 97.8 ± 3.3% |  |  |  |  |  |  |  |  |
| CCCCC(C)(C)c1cc(O)c2c(c1)OC(C)(CCC=C(C)C)C=C2 (stereo not drawn) [8d, Depentyl-5-α,α-dimethylpentylcannabichromene] | 23.6 ± 7.4 µM | > 100 µM |  | <10% |  | > 100 µM | <10% | > 100 µM | <10% | 0.4 ± 0.01 µM | 0.15 ± 0.03 µM | 98.7 ± 1.9% |  |  |  |  |  |  |  |  |
